# Measurements as given in PMC5635026, “Homo-PROTACs: bivalent small-molecule dimerizers of the VHL E3 ubiquitin ligase to induce self-degradation” (Nature Communications, 2017).
# Key:
# V19CB = molecular target: T1, V19CB (Homo sapiens, UniProt P40337); experiment: Size-exclusion chromatography (SEC) of complex formation with V19CB; assay type: binding; settings: compound 30 µM; for shift of VCB peak / ternary complex formation in SEC: VCB 50 µM
# T1 construct: made in house
# Protocol: Protein expression and purification. Human proteins VHL (UniProt accession number: P40337), ElonginC (Q15369), and ElonginB (Q15370) were used for all protein expression. The short-isoform-containing VCB complex (V19CB) was expressed, purified and stored as described previously. For expression of the long-isoform-containing VCB complex (V30CB), N-terminally His6-tagged VHL (1–213), ElonginC (17–112) and ElonginB (1–104) were co-expressed in Escherichia coli BL21(DE3) at 20 °C for 18 h using 0.5 mM isopropyl β-D-1-thiogalactopyranoside (IPTG). E. coli cells were resuspended in binding buffer (50 mM HEPES, pH 8.0, 500 mM NaCl, 10 mM imidazole and 5 mM β-mercaptoethanol), lysed using a pressure cell homogenizer (Stansted Fluid Power), and lysate clarified by centrifugation. The supernatant was loaded onto a HisTrap FF affinity column (GE Healthcare) equilibrated with binding buffer, and bound protein was eluted using an imidazole gradient. The His6 tag was removed using thrombin protease (Sigma), and the untagged complex was dialyzed into binding buffer. V30CB was then loaded onto the HisTrap FF column a second time, allowing impurities to bind as the complex eluted without binding. The flow-through was dialyzed using a low-salt buffer (20 mM HEPES, pH 8.0, 25 mM NaCl and 1 mM DTT) and then loaded onto a Resource Q anion exchange column (GE Healthcare); bound protein was eluted across a linear NaCl gradient. V30CB was then additionally purified by size-exclusion chromatography using a Superdex-75 16/600 column (GE Healthcare) equilibrated with 20 mM HEPES, pH 7.5, 100 mM sodium chloride and 1 mM TCEP. All chromatography purification steps were performed using Äkta FPLC purification systems (GE Healthcare).
# Size-exclusion chromatography (SEC). SEC experiments were carried out in a ÄKTA pure system (GE Healthcare) at room temperature. The oligomeric state of the VCB complex in solution was analyzed by gel filtration in a buffer containing 20 mM Bis-Tris (pH 7), 150 mM NaCl and 1 mM 1,4-dithiothreitol (DTT) using a Superdex 200 Increase 10/300 GL column (GE Healthcare) calibrated with globular proteins of known molecular weight (GE Healthcare, 28-4038-41/42). […] Sample volume for each injection was 200 µl, and the flow rate was 0.5 ml min^−1. Peak elution was monitored using ultraviolet absorbance at 280 nm.
# pVHL19 = pVHL19 (Homo sapiens, UniProt P40337); experiment: Immunoblot of pVHL19 protein level in HeLa cells after compound treatment; assay type: cell-based; set-up: endogenous in cells; host or cells: HeLa; settings: 1 µM, 10 h, DMSO = 100, Fig. 4a, read-out: pVHL19 band quantification normalized to 0.1% DMSO
# Sequence of pVHL19 (P40337 54-213): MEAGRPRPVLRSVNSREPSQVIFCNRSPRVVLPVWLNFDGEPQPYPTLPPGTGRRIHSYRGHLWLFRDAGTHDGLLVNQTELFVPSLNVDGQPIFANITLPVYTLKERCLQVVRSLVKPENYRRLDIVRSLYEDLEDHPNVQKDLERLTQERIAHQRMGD
# Sequence of pVHL19 (Q15369 whole entry partner): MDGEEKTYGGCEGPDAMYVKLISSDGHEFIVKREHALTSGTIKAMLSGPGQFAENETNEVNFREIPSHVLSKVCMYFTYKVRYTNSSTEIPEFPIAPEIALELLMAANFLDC
# Sequence of pVHL19 (Q15370 whole entry partner): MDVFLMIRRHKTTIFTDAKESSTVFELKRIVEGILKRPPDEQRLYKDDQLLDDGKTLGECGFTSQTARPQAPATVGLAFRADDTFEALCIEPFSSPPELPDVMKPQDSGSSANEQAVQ
# Protocol: Cell culture. Human cell lines HeLa, U2OS and HEK 293, purchased from ATCC, were propagated in DMEM supplemented with 10% fetal bovine serum (FBS), L- glutamine, 100 μg ml^−1 of penicillin/streptomycin at 37 °C and 5% CO2. Cells were maintained for no more than 30 passages. All cell lines were routinely tested for mycoplasma contamination using MycoAlert kit from Lonza. For compound treatment experiments, cells were transferred in six-well plates with either 3 × 10^5 or 5 × 10^5 cells per well in 2 ml of media. At 80% confluence, cells were treated with compounds at the desired concentration, reaching final DMSO concentration of 0.1% v/v. Cells were incubated at 37 °C and 5% CO2 for the desired time before harvesting.
# Immunoblotting. Cells were lysed in lysis buffer (20 mM Tris pH 8, 150 mM NaCl, 1% Triton × 100) and a protease inhibitor cocktail (Roche) per 10 ml buffer. For protein extracts, the dishes were placed on ice. The media was aspirated and the tissue layer washed twice with ice-cold phosphate buffer saline (PBS). Lysis buffer (120 μl) was added and the cells detached from the surface with a cell scraper. After removal of the insoluble fraction by centrifugation, the protein concentration of the supernatant was determined by Pierce™ Coomassie (Bradford) Protein Assay Kit. Protein extracts were fractionated by SDS-PAGE on 4–12% Tris-Acetate NuPage® Novex® (Life Technologies) polyacrylamide gels and transferred to a nitrocellulose membrane using wet transfer. The membrane was then blocked with 5 % w/v Bovine serum albumin (BSA) in Tris-buffered saline (TBS) with 0.1% w/v Tween-20. For detecting proteins the following primary antibodies in the given concentrations were used: anti-β-Actin (Cell Signaling Technology, 4970S, 13E5) 1:2000, anti-VHL (Cell Signaling Technology, #68547) 1:1000, anti-Hif-1α (BD Biosciences, 610959, clone 54) 1:1,000, anti-hydroxy-HIF-1α (Hyp564) (Cell Signaling Techonology; #3434) 1:1,000, anti-PHD2 (Bethyl Laboratories; A300-322A) 1:1,000, anti-PHD3 (Bethyl Laboratories; A300-327A) 1:1000, anti-CRBN (Proteintech; 11435-1-AP) 1:1,000. Following incubation with a horseradish peroxidase-conjugated secondary antibody (Cell Signaling Technology), the signal was developed using enhanced chemiluminescence (ECL) Western Blotting Detection Kit (Amersham) on Amersham Hyperfilm ECL film (Amersham). Band quantification was performed using ImageJ software and reported as relative amount as ratio of the each protein band relative to the lane’s loading control. The values obtained were then normalized to 0.1% DMSO vehicle control. See Supplementary Fig. 12 for full-scanned images of western-blots shown in the main text figures.
# T1 sequence (P40337 54-213): as the sequence (P40337 54-213) above
# T1 sequence (Q15369 17-112 partner limits assumed): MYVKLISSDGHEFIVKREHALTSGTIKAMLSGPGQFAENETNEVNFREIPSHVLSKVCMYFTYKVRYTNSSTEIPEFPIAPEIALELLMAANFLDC
# T1 sequence (Q15370 1-104 partner limits assumed): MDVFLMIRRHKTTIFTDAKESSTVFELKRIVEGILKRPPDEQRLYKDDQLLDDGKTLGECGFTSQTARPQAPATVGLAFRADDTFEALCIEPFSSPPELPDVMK
remaining activity at 1 µM (pVHL19) [%],molecular weight of species in shifted SEC peak (V19CB; V19CB 50 µM),Structure (SMILES),shift of VCB peak / ternary complex formation in SEC (V19CB)
92,,"Cc1ncsc1-c1ccc(CNC(=O)[C@@H]2C[C@@H](O)CN2C(=O)[C@@H](NC(=O)COCCOCCOCCOCCOCC(=O)N[C@H](C(=O)N2C[C@H](O)C[C@H]2C(=O)NCc2ccc(-c3scnc3C)cc2)C(C)(C)C)C(C)(C)C)cc1 [CM10, N ^1 ,N ^17-bis((S)-1-((2S,4R)-4-hydroxy-2-((4-(4-methylthiazol-5-yl)benzyl)carbamoyl)pyrrolidin-1-yl)-3,3-dimethyl-1-oxobutan-2-yl)-3,6,9,12,15-pentaoxaheptadecanediamide]",formation of a ternary complex eluting at identical retention volume when compared to CM11
102,,"Cc1ncsc1-c1ccc(CNC(=O)[C@@H]2C[C@@H](O)CN2C(=O)[C@@H](NC(=O)COCCOCCOCCOCC(=O)N[C@H](C(=O)N2C[C@H](O)C[C@H]2C(=O)NCc2ccc(-c3scnc3C)cc2)C(C)(C)C)C(C)(C)C)cc1 [CM09, N ^1 ,N ^14-bis((S)-1-((2S,4R)-4-hydroxy-2-((4-(4-methylthiazol-5-yl)benzyl)carbamoyl)pyrrolidin-1-yl)-3,3-dimethyl-1-oxobutan-2-yl)-3,6,9,12-tetraoxatetradecanediamide]",formation of a ternary complex eluting at identical retention volume when compared to CM11
91,~ 90 kDa,"Cc1ncsc1-c1ccc(CNC(=O)[C@@H]2C[C@@H](O)CN2C(=O)[C@@H](NC(=O)COCCOCCOCCOCCOCCOCC(=O)N[C@H](C(=O)N2C[C@H](O)C[C@H]2C(=O)NCc2ccc(-c3scnc3C)cc2)C(C)(C)C)C(C)(C)C)cc1 [CM11, N ^1 ,N ^20-bis((S)-1-((2S,4R)-4-hydroxy-2-((4-(4-methylthiazol-5-yl)benzyl)carbamoyl)pyrrolidin-1-yl)-3,3-dimethyl-1-oxobutan-2-yl)-3,6,9,12,15,18-hexaoxaicosanediamide]",
